Values after ≈ are worked out from the molar mass of the structure shown.
Test system: KB
Assay: Cytotoxicity against human KB cells
Type: functional
Settings: read-out: ED50 (the source's name)

Q: Which EC50 does the source give for `COc1cc([C@@H]2c3cc4c(c(OC)c3C[C@H]3COC(=O)[C@@H]32)OCO4)cc(OC)c1OC` here?
A: Its EC50 is 0.026 µg/mL (≈ 0.0607 µM).

— ChEMBL document CHEMBL1151348, “Plant anticancer agents. X. Lignans from Juniperus phoenicea” (1980)
